Test results reported in patent US20220409573A1, “Hippocampus Regeneration And Memory Recovery” (INNOBIOSCIENCE, LLC, priority 2021, published 2022).

How the values were obtained:
[1] = test system: CA3-CA1 connections in hippocampal slices; assay: Electrophysiology in Wt hippocampal slices (fEPSP, PPF, LTP, LTD); format: cell-based, mice; conditions: hippocampal slices; 6-BIO 10 nM
Procedure: Slice Preparation and Electrophysiology. […] Slices were transferred to an experimental chamber (2 ml), superfused (3 ml/min, at 20-22° C.) with gassed ACSF and visualized by trans-illumination with a binocular microscope (MSZ-10, Nikon, Melville, N.Y.). To evoke field excitatory postsynaptic potentials (fEPSPs), we stimulate with bipolar concentric electrodes (Platinum/Iridium, 125 μm OD diameter, FHC Inc., Bowdoin, Me.) generated by a stimulator (Axon 700b, Molecular Devices, Sunnyvale, Calif.) and connected to an isolation unit (Isoflex, AMPI, Jerusalem, Israel) . The stimulation was in the Stratum Radiatum within 100-200 μm from the recording site. The paired pulse facilitation index was calculated by ((R2−R1)/R1), where R1 and R2 were the peak amplitudes of the first and second fEPSP respectively. To generate LTP we used Theta Burst Stimulation (TBS) consisting of 5 trains of stimulus with an inter-train interval of 20 s. Each train consisted of 10 bursts at 5 Hz and each burst having 4 pulses at 100 Hz. To generate LTD we used Low Frequency Stimulation (LFS) consisting in 900 paired pulses at 1 Hz. Recordings were filtered at 2.0-3.0 kHz, sampled at 4.0 kHz using an A/D converter, and stored with pClamp 10 (Molecular Devices). Evoked postsynaptic responses were analyzed off-line, using an analysis software (pClampfit, Molecular Devices), which allowed visual detection of events, computing only those events that exceeded and arbitrary threshold.

[2] = test system: Wnt/β-catenin pathway in hippocampal slices; assay: β-catenin, GSK-3β and Dvl-3 western blot in hippocampal slices of wild-type mice; format: cell-based; conditions: for time at which total levels of β-catenin increased: 5 μM ANDRO, Wnt3a conditioned medium or 10 nM 6-BIO, up to 1 h
Procedure: Slice preparation. […] Transverse slices (250-300 μm) from the dorsal hippocampus were cut under oxygen-saturated cold artificial cerebrospinal fluid using a Vibroslice microtome (VSL, World Precision Instruments, Inc WPI, Sarasota, Fla.). After obtained, slices were incubated in ACSF for at least than one hour at room temperature, in order to stabilize activity.
Immunoblotting. […] Briefly, tissues were homogenized in RIPA buffer (10 mM Tris-Cl, pH 7.4, EDTA 5 mM, 1% NP-40, 1% sodium deoxycholate, and 1% SDS) supplemented with a protease inhibitor mixture (1 mM PMSF, 2 μg/mL aprotinin, 1 μg/mL pepstatin and 10 μg/mL benzamidine) and phosphatase inhibitors (25 mMNaF, 100 mM Na3VO4, 1 mM EDTA and 30 μM Na4P207) using a Potter homogenizator and then passed sequentially through different caliber syringes. […] Protein concentration was determined using the BCA Protein Assay Kit (Pierce). […] The reactions were followed by incubation with anti-mouse, anti-goat or anti-rabbit IgG peroxidase conjugated (Pierce, Rockford, Ill.) and developed using an ECL kit (Western Lightning Plus ECL, PerkinElmer).

HEK293T cells = assay: TOP/FOP flash luciferase reporter assay; format: cell-based
Procedure: Luciferase Assay. 150,000 HEK293T cells were seeded in triplicate per condition and kept for 24 hours at 37° C. with 5% CO2. The cultures were transfected with TOPflash or FOPflash (400 ng), which are firefly-luciferase reporter DNA constructs (Milipore), using LipofectAMINE 2000 (Invitrogen). To control for transfection pRL-TK (10 ng) was included in all transfections. […] Values were normalized by the renilla value from the same well. To statistically compare treatments ANOVA was used.

Wnt target genes = assay: PCR array of Wnt target genes in hippocampal neurons; format: cell-based, rat
Procedure: Primary culture of rat hippocampal neurons. […] PCR-ARRAY. RNA from hippocampal neurons was extracted using Trizol. Quantification and purity of RNA preparations were checked by absorbance using Nanodrop ND-2000. Only preparations with a 260/280 nm ratio≥1.8, a 260/230 nm ratio ≥1,7 and no sign of RNA degradations, verified by agarose gel electrophoresis with Gel Red TM were used. Genomic DNA was degraded. Using RT2First-Strand cDNA Synthesis kit (SuperArray), 1 μg total RNA was reverse transcribed and then real-time PCR was performed by adding cDNA directly to PCR Master Mix, containing SYBR Green and ROX. The mixtures were then aliquoted into a 96-well PCR array plates, which profiles the expression of 84 Wnt target genes from rat. The PCR was run on ABI StepOnePlus, with 1 cycle of 10 min at 95° C. followed by 40 cycles of 15 s at 95° C. and 1 min at 60° C.
Treatment of neuronal cultures. Primary hippocampal cultures of neurons 14 DIV were washed twice in neurobasal medium and maintained for 1 hour.

[3] = 9 h treatment, of the 86 genes analyzed

Row | Compound | induction of LTD (fEPSP slope after LFS) [1] | time at which total levels of β-catenin increased [2] [min] | rate of increase of GSK3β Ser-9 and decrease of Tyr-216 phosphorylation ([2]; compared to Wnt-3a treatment) | TOPflash reporter activity (HEK293T cells; ANDRO 10 μM or 6-BIO 10 nM, 24 h) | increase of luciferase reporter over control (HEK293T cells; TOPflash, HEK293T) [fold] | Cdh-1 gene expression (Wnt target genes) | number of Wnt target genes specifically modulated (Wnt target genes; [3]) [genes] | number of changed Wnt target genes shared by ANDRO and 6-BIO (Wnt target genes; [3]) [genes] | inhibition of β-catenin accumulation by Wnt antagonists sFRP and Dkk-1 ([2]; antagonists 15 min before 5 μM ANDRO or Wnt3a conditioned medium for 1 h)
1 | O=C1Nc2cc(Br)ccc2/C1=C1/Nc2ccccc2/C1=N\O [6-BIO, 6-bromoindirubin-3′-oxime, reference compound] | complete inhibition of the induction of LTD | 15 | faster | significant increase | ~6 | does not | 4 | 4 | –
2 | Wnt-3a | – | 45 | – | – | – | – | – | – | able to inhibit the accumulation of β-catenin in the presence of Wnt3a
